According to patent US8460858B2, “Near-infrared-ray absorbing material containing cyanine compound, and cyanine compound” (Adeka Corporation, priority 2008, dated 2013):
Where a name gives a salt, the structure may show the parent alone.

Columns and labels:
[1] = Solubility measurement in methyl ethyl ketone (MEK); type: physicochemical; details: concentration when the solute completely dissolved
Experimental: The solubility measurement was conducted as follows: the compound to be tested was weighed; methyl ethyl ketone (MEK) was slowly added thereto; when the solute completely dissolved, the solution was weighed; and the concentration of the test compound in the solution was determined by calculation.

[2] = Decomposition point measurement (TG/DTA); type: physicochemical; details: temperature at which the mass started to decrease, differential thermal analysis, temperature-rise rate 10° C./minute
Experimental: The UV-Visible absorption spectra measurement was conducted by preparing a chloroform solution of each compound to be tested, and employing a UV-Vis-NIR spectrophotometer (“V-570”; product from JASCO Corporation). The decomposition point measurement was conducted using a thermogravimetry differential thermal analyzer (“TG/DTA 6200”; product from Seiko Instruments Inc.), to find the temperature at which the mass started to decrease in differential thermal analysis at a temperature-rise rate of 10° C./minute.

Structure (SMILES)	Solubility (MEK) [1] [wt %]	Decomposition Point [2] [°C]
CN1/C(=C/C=C/C=C/C=C/C=C/C2=[N+](C)c3ccc4ccccc4c3C2(Cc2ccccc2)Cc2ccccc2)C(Cc2ccccc2)(Cc2ccccc2)c2c1ccc1ccccc21 [Example 1-7, Bis(Trifluoromethane Sulfone)Imide Salt of Compound No. 4]	3.71	266.5
CN1/C(=C/C=C/C=C/C=C/C=C/C2=[N+](C)c3ccc4ccccc4c3C2(C)Cc2ccccc2)C(C)(Cc2ccccc2)c2c1ccc1ccccc21 (stereo not shown) [Example 1-3, Tetrafluoroborate Salt of Compound No. 3]	0.97	180.5
CN1/C(=C/C=C/C=C/C=C/C=C/C2=[N+](C)c3c(c4ccccc4c4ccccc34)C2(C)C)C(C)(C)c2c1c1ccccc1c1ccccc21 [1-4, reference compound]	0.28	261.3
CN1/C(=C/C=C/C=C/C=C/C=C/C2=[N+](C)c3ccccc3C2(Cc2ccccc2)Cc2ccccc2)C(Cc2ccccc2)(Cc2ccccc2)c2ccccc21 [Example 1-1, Tetrafluoroborate Salt of Compound No. 2]	0.16	238.3
CN1/C(=C/C=C/C=C/C=C/C=C/C2=[N+](C)c3ccc4ccccc4c3C2(C)Cc2ccccc2)C(C)(Cc2ccccc2)c2c1ccc1ccccc21 (stereo not shown) [Example 1-4, Bis(Trifluoromethane Sulfone)Imide Salt of Compound No. 3]	0.98	255.8
O=S(=O)(c1ccc2c(c1)[S][Cu-]1([S]2)[S]c2ccc(S(=O)(=O)N3CCOCC3)cc2[S]1)N1CCOCC1 [Example 1-8, Quencher (1-1) Salt of Compound No. 4]	3.69	258.8
CN1/C(=C/C=C/C=C/C=C/C=C/C2=[N+](C)c3ccccc3C2(C)C)C(C)(C)c2ccccc21 [Example 1-10, bis(trifluoromethane sulfone)imide salt of Compound No. 61]	0.73	238.4
CN1/C(=C/C=C/C=C/C=C/C=C/C2=[N+](C)c3c(c4ccccc4c4ccccc34)C2(C)C)C(C)(C)c2c1c1ccccc1c1ccccc21 [Example 1-12, bis(trifluoromethane sulfone)imide salt of Compound No. 105]	1.13	291.5
CCCN1/C(=C/C=C/C=C/C=C/C=C/C2=[N+](CCC)c3ccc4ccccc4c3C2(Cc2ccccc2)Cc2ccccc2)C(Cc2ccccc2)(Cc2ccccc2)c2c1ccc1ccccc21 [Example 1-9, Tetrafluoroborate Salt of Compound No. 6]	1.36	193.8
CN1/C(=C/C=C/C=C/C=C/C=C/C2=[N+](C)c3ccc4ccccc4c3C2(Cc2ccccc2)Cc2ccccc2)C(Cc2ccccc2)(Cc2ccccc2)c2c1ccc1ccccc21 [Example 1-6, Tetrafluoroborate Salt of Compound No. 4]	1.62	192.6
CN1/C(=C/C=C/C=C/C=C/C=C/C2=[N+](C)c3ccccc3C2(Cc2ccccc2)Cc2ccccc2)C(Cc2ccccc2)(Cc2ccccc2)c2ccccc21 [Example 1-2, Bis(Trifluoromethane Sulfone)Imide Salt of Compound No. 2]	2.34	248.6
O=S(=O)(c1ccc2c(c1)[S][Cu-]1([S]2)[S]c2ccc(S(=O)(=O)N3CCOCC3)cc2[S]1)N1CCOCC1 [Example 1-5, Quencher (1-1) Salt of Compound No. 3]	0.39	249.1
CN1/C(=C/C=C/C=C/C=C/C=C/C2=[N+](C)c3ccc4ccccc4c3C23CCCCC3)C2(CCCCC2)c2c1ccc1ccccc21 [Example 1-11, bis(trifluoromethane sulfone)imide salt of Compound No. 64]	1.46	280.7
O=S(=O)(c1ccc2c(c1)[S][Cu-]1([S]2)[S]c2ccc(S(=O)(=O)N3CCOCC3)cc2[S]1)N1CCOCC1 [1-3, reference compound]	0.20	198.7
